Laboratory results: patent US20060276340A1, “HERBICIDE COMPOSITION COMPRISING PYRIBAMBENZ-PROPYL OR PYRIBAMBENZ-ISOPROPYL” (Zhejiang Chem-Tech Group Co., Ltd., priority 2003, published 2006)
“Also recorded” adds a separate entry of the source.

Tests used:
Format in all cases: in vivo
Cerastium arvense [1] = assay: greenhouse pot test, post-emergence treatment; settings: CERAR 6 leaves
Experimental: (§1) The test soil is a formulated sandy loam soil. 9.5 centimeter diameter pots are used for herbicidal activity test.
(§2) The pots for post-emergence treatment are placed into a greenhouse and incubated for 7 to 9 days, and then subjected to leave treatment by spraying. The preparation liquid for the treatment prepared by mixing individual single-herbicides was diluted with water to the desired dosage.
(§3) The treated pots stood for one day, then were placed in a greenhouse and watered regularly. The herbicidal activities of the compositions were evaluated by visual examination after incubating for 14 to 21 days.
(§4) The herbicidal activities of the compositions were evaluated by plant symptoms such as stunting, deformity, chlorosis, and whitening. 0 represents that the compositions have no herbicidal effect or have safety to crops. 100 represents that the weeds or crops were completely killed.

Alopercurus japonicus [2] = assay: greenhouse pot test, post-emergence treatment; settings: ALOJA
Experimental: as §1, §2, §3, §4

Poa annua [3] = assay: greenhouse pot test, post-emergence treatment; settings: POAAN
Experimental: as §1, §2, §3, §4

Galium aparine [4] = assay: greenhouse pot test, post-emergence treatment
Experimental: as §1, §2, §3, §4

Veronica didyma = assay: greenhouse pot test, post-emergence treatment; settings: VERDI
Experimental: as §1, §2, §3, §4

Polypogon fugax [5] = assay: greenhouse pot test, post-emergence treatment; settings: POLFU 4˜4.5 leaves
Experimental: as §1, §2, §3, §4

Alopecurus aequalis [6] = assay: greenhouse pot test, post-emergence treatment; settings: ALOAE 3 leaves
Experimental: as §1, §2, §3, §4

weeds in rape field = assay: weed control in rape field, descriptive statements
rape = assay: safety to crops
Experimental: The herbicidal activities of the compositions were evaluated by plant symptoms such as stunting, deformity, chlorosis, and whitening. 0 represents that the compositions have no herbicidal effect or have safety to crops. 100 represents that the weeds or crops were completely killed. [table]

Digitrria sanguinalis = assay: greenhouse pot test, Tables 1-2; settings: DIGSA 3 leaves
Experimental: as §1
(§5) The soil in the pot for the pre-emergence test was sprayed one day after planting. The preparation liquid for the treatment prepared by mixing individual single-herbicides was diluted with water to the desired dosage.
as §2, §3, §4

Poa annua [7] = assay: greenhouse pot test, Tables 1-2; settings: POAAN 3 leaves
Experimental: as §1, §5, §2, §3, §4

Beckmannia syzigachne [8] = assay: greenhouse pot test, Tables 1-2; settings: BECSY 2 leaves
Experimental: as §1, §5, §2, §3, §4

Polypogon fugax [9] = assay: greenhouse pot test, Tables 1-2; settings: POLFU 3-4 leaves
Experimental: as §1, §5, §2, §3, §4

Alopecurus aequalis [10] = assay: greenhouse pot test, Tables 1-2
Experimental: as §1, §5, §2, §3, §4

Cerastium arvense [11] = assay: greenhouse pot test, post-emergence early stage treatment
Experimental: as §1, §2, §3, §4

Alopercurus japonicus [12] = assay: as above; settings: ALOJA
Experimental: as §1, §2, §3, §4

Poa annua [13] = assay: as above
Experimental: as §1, §2, §3, §4

Galium aparine [14] = assay: as above
Experimental: as §1, §2, §3, §4

Beckmannia syzigachne [15] = assay: as above; settings: BECSY 2˜3 leaves
Experimental: as §1, §2, §3, §4

COc1cc(OC)nc(Oc2ccccc2CNc2ccc(C(=O)OC(C)C)cc2)n1 [Pyribambenz-isopropyl, iso-propyl 4-({2-[(4,6-dimethoxypyrimidin-2-yl)oxy]benzyl}amino)benzoate]
visual evaluation of weed effects (Cerastium arvense [1]; 30 g/ha): 50% | visual evaluation of weed effects (Cerastium arvense [1]; 45 g/ha): 60% | visual evaluation of weed effects (Alopercurus japonicus [2]; 30 g/ha): 85% | visual evaluation of weed effects (Alopercurus japonicus [2]; 45 g/ha): 90% | visual evaluation of weed effects (Poa annua [3]; 30 g/ha): 85% | visual evaluation of weed effects (Poa annua [3]; 45 g/ha): 90% | visual evaluation of weed effects (Galium aparine [4]; GALAP 7˜8 leaves, 30 g/ha): 0% | visual evaluation of weed effects (Galium aparine [4]; GALAP 7˜8 leaves, 45 g/ha): 0% | visual evaluation of weed effects (Galium aparine [4]; GALAP, 30 g/ha): 20% | visual evaluation of weed effects (Galium aparine [4]; GALAP, 45 g/ha): 20% | visual evaluation of weed effects (Veronica didyma; 30 g/ha): 20% | visual evaluation of weed effects (Veronica didyma; 45 g/ha): 30% | visual evaluation of weed effects (Polypogon fugax [5]; 30 g/ha): 50% | visual evaluation of weed effects (Polypogon fugax [5]; 45 g/ha): 60% | visual evaluation of weed effects (Alopecurus aequalis [6]; 30 g/ha): 80% | visual evaluation of weed effects (Alopecurus aequalis [6]; 45 g/ha): 90% | weed control (weeds in rape field; Alopecurus aequalis, Alopecurus japonicus, Stellaria aquatica, Stallaria media and Atellaria alsine): high-effectively control; also recorded: effective weed control | effectiveness of control (weeds in rape field; second important weeds in rape field: Poa annua, sclerochloa kengiana, Beckmannia syzigachne, Polypogon fugax, broadleaf Cardlamine hirsuta, Galium aparine, Lapsana apogonoides, Hemistepta lyrata): moderate | selectivity between rape and weeds (rape; in vivo): good selectivity | safety to crops (rape; rape / objective crops): safety toward rape | visual evaluation of weed effects (Digitrria sanguinalis; 30 g/ha): 60% | visual evaluation of weed effects (Digitrria sanguinalis; 45 g/ha): 80% | visual evaluation of weed effects (Poa annua [7]; 30 g/ha): 60% | visual evaluation of weed effects (Poa annua [7]; 45 g/ha): 90% | visual evaluation of weed effects (Beckmannia syzigachne [8]; 30 g/ha): 30% | visual evaluation of weed effects (Beckmannia syzigachne [8]; 45 g/ha): 30% | visual evaluation of weed effects (Polypogon fugax [9]; 30 g/ha): 80% | visual evaluation of weed effects (Polypogon fugax [9]; 45 g/ha): 80% | visual evaluation of weed effects (Alopecurus aequalis [10]; ALOAE 0 leaf, 30 g/ha): 90% | visual evaluation of weed effects (Alopecurus aequalis [10]; ALOAE 0 leaf, 45 g/ha): 90% | visual evaluation of weed effects (Alopecurus aequalis [10]; ALOAE 3 leaves, 30 g/ha): 100% | visual evaluation of weed effects (Alopecurus aequalis [10]; ALOAE 3 leaves, 45 g/ha): 100% | visual evaluation of weed effects (Cerastium arvense [11]; CERAR 3˜4 leaves, 30 g/ha): 40% | visual evaluation of weed effects (Cerastium arvense [11]; CERAR 3˜4 leaves, 45 g/ha): 60% | visual evaluation of weed effects (Cerastium arvense [11]; CERAR, 30 g/ha): 80% | visual evaluation of weed effects (Cerastium arvense [11]; CERAR, 45 g/ha): 90% | visual evaluation of weed effects (Alopercurus japonicus [12]; 30 g/ha): 90% | visual evaluation of weed effects (Alopercurus japonicus [12]; 45 g/ha): 90% | visual evaluation of weed effects (Poa annua [13]; POAAN 2˜3 leaves, 30 g/ha): 80% | visual evaluation of weed effects (Poa annua [13]; POAAN 2˜3 leaves, 45 g/ha): 95% | visual evaluation of weed effects (Poa annua [13]; POAAN, 30 g/ha): 95% | visual evaluation of weed effects (Poa annua [13]; POAAN, 45 g/ha): 98% | visual evaluation of weed effects (Galium aparine [14]; GALAP 7˜8 leaves, 30 g/ha): 0% | visual evaluation of weed effects (Galium aparine [14]; GALAP 7˜8 leaves, 45 g/ha): 10% | visual evaluation of weed effects (Galium aparine [14]; GALAP, 30 g/ha): 30% | visual evaluation of weed effects (Galium aparine [14]; GALAP, 45 g/ha): 50% | visual evaluation of weed effects (Beckmannia syzigachne [15]; 30 g/ha): 50% | visual evaluation of weed effects (Beckmannia syzigachne [15]; 45 g/ha): 70%
